According to patent US8809280B2, “Therapeutic peptides” (Lytix Biopharma AS, priority 2009, dated 2014):
Converted amounts (≈) assume the structure as drawn. “And” between values parts separate entries of the source, which are not always exact repeats. Equal entries are not always repeated. Starred links: 1 amine or outer side, 2 acyl side, 3 side chain; linkers in the order of their positions; H or OH if unused. Non-standard residues stand in square brackets, D forms with d. Residues, ends and D or L forms follow the SMILES beside them. X1 = Cc1cc(C)cc(CC(CN[*:1])(Cc2cc(C)cc(C)c2)C(=O)[*:2])c1; X4 = O=C(C(CN[*:1])(Cc1ccc(F)cc1)Cc1ccc(F)cc1)[*:2]; X2 = O=C(C(CCCc1ccccc1)(CCCc1ccccc1)CN[*:1])[*:2]; X5 = O=C(C(CCC1CCCCC1)(CCC1CCCCC1)CN[*:1])[*:2]; X3 = O=C(C(CN[*:1])(Cc1ccccc1)Cc1ccccc1)[*:2]

Key:
Format in all cases: cell-based
[1] = system: Staphylococcus aureus (ATTC 25923); test: microbe, parasite or virus in culture; settings: Staphylococcus aureus, Example 2; values separated by / are repeat tests; read-out: Antimicrobial potency (MIC) S. aureus
Protocol: (§1) The antimicrobial testing was conducted by TosLab A/S (Tromsø, Norway). Each compound was diluted to 1 mg/ml in water and tested in duplicates at 200, 100, 50, 35, 15, 10, 5, 2.5, 1, 0.5 μg/ml except 4n which was tested at 50, 35, 15, 10, 5, 2.5, 1, 0.5 μg/ml due to solubility problems. All tested compounds were di TFA salts.
(§2) The bacterial strains were grown in 2% Bacto Peptone water until exponential growth was achieved. […] A bacterial concentration of 2×10^6 cfu/ml was used. Both negative control (no peptide) and positive control (Gentamicin) was used for all bacterial strains. Growth or no growth was judged by the turbidity of the wells.
Staphylococcus aureus (ATTC 25923)
(§3) Antimicrobial assays: 200 μg/ml
(§4) Suitable methodologies are described in Example 1.
(§5) Each compound was tested in duplicates at 200, 100, 50, 35, 15, 10, 5, 2.5, 1, 0.5 μg/ml. All tested compounds were di-trifluoroacetic acid salts.

[2] = system: methicillin resistant Staphylococcus aureus (ATCC 33591); test: microbe, parasite or virus in culture; settings: Staphylococcus aureus, ATCC 33591 / MRSA, Example 2; values separated by / are repeat tests; read-out: Antimicrobial potency (MIC) MRSA
Protocol: as §1, §2
Methicillin resistant Staphylococcus aureus (ATCC 33591)
as §3, §4, §5

[3] = system: methicillin resistant Staphylococcus epidermidis (ATCC 27626); test: microbe, parasite or virus in culture; settings: Staphylococcus epidermidis, ATCC 27626 / MRSE, Example 2; values separated by / are repeat tests; read-out: Antimicrobial potency (MIC) MRSE
Protocol: as §1, §2
Methicillin resistant Staphylococcus epidermidis (ATCC 27626)
as §3, §4, §5

[4] = system: Escherichia coli (ATTC 25922); test: microbe, parasite or virus in culture; settings: Escherichia coli, Example 2; values separated by / are repeat tests; read-out: Antimicrobial potency (MIC) E. coli
Protocol: as §1, §2
Escherichia coli (ATTC 25922)
as §3, §4, §5

[5] = system: human red blood cells; test: cells; settings: Homo sapiens, Erythrocyte; Example 2; highest concentration tested 1000 μg/ml; * low solubility in the test media; read-out: Toxicity RBC (EC50)
Protocol: The hemolytic testing against human erythrocytes was conducted by Lytix Biopharma A/S (Tromso, Norway). Each compound was tested from a concentration of 1 mg/ml and lower, except 4k and 4n which was only tested up to 0.5 mg/ml due to solubility problems. 8 mL of blood was collected from adult healthy male donors. The blood was divided equally and distributed in a commercial available EDTA containing test tube (BD vacutainer, 7.2 mg K2 EDTA) and in a 10 mL reaction vial containing 40 μL of a heparin solution (1000 U/mL in 0.9% sodium chloride). After 30 minutes the hematocrit of the EDTA treated blood was determined. The heparinized blood was centrifuged for 10 minutes at 1500 rpm and the supernatant removed. Subsequently the RBCs were washed with prewarmed PBS three times, and diluted to 10% hematocrit. The compounds dissolved in PBS (concentration 1 μg/mL to 1000 µg/mL) and the erythrocytes were incubated under agitation at 37° C. for one hour. A positive control with an end concentration of 0.1% TRITON X-100 (nonionic surfactant) and a negative control containing pure PBS buffer were included. The samples were centrifuged (4000 rpm) for 5 minutes and the absorption of the supernatant was measured at 405 nm. The values given in Table 1A correspond to 50% hemolysis.
The plasma fraction of heparinized human blood was first removed by centrifugation and three additional washing steps with 37° C. pre-warmed phosphate buffered saline (PBS). Subsequently, the human RBC were diluted to 10% hematocrit and the β^2,2-amino acid derivatives were dissolved in PBS providing concentrations ranging from 1-1000 μg/mL. The diluted RBC were added to the compound solutions to a final erythrocyte concentration of 1% v/v. PBS and TRITON X-100 (non-ionic surfactant), in a final concentration of 0.1% v/v, were included as negative and positive control. After 1 hour agitated incubation at 37° C. the samples were centrifuged at 4000 rpm for 5 min. Release of hemoglobin was determined by measuring the absorbance of the supernatant at 405 nm. Hemolytic activity was calculated as the ratio of treated sample with β^2,2-amino acid derivative and tenside treated sample according to the formula: […]

[6] = system: MRC-5; test: Toxicity assay MRC-5; settings: highest concentration tested 500 μg/ml; for Toxicity MRC-5: Example 2; for IC50: Homo sapiens, MRC5, Example 2
Protocol: Cells for Toxicity Studies Used MRC-5 and human RBC MRC-5 assay: 500 μg/ml

[7] = system: A20; test: cells; settings: for Anti-Cancer Selectivity MRC-5/A20: ratio of MRC-5 to A20 values
Protocol: Cancer Cell Lines A20 or MethA Anticancer assays: 500 μg/ml

Cc1ccc(CC(CN)(Cc2ccc(C)cc2)C(=O)NCCN)cc1 [Compound 8, 3-amino-N-(2-aminoethyl)-2,2-bis(4-methylbenzyl)propanamide]
MIC [1]: 200 µg/mL (≈ 589 µM)
MIC [2]: 100 µg/mL (≈ 295 µM)
MIC [3]: 100 µg/mL (≈ 295 µM)
MIC [4]: > 200 µg/mL
EC50 [5]: > 1000 µg/mL
Toxicity MRC-5 [6]: 44 µg/mL
IC50 [6]: 26 µg/mL (≈ 76.6 µM)

COc1cc(CC(CN)(Cc2cc(OC)cc(OC)c2)C(=O)NCCN)cc(OC)c1 [Compound 13, 3-amino-N-(2-aminoethyl)-2,2-bis(3,5-dimethoxy-benzyl)propanamide]
MIC [1]: 200 µg/mL (≈ 463 µM)
MIC [2]: 200 µg/mL (≈ 463 µM)
MIC [3]: 100 µg/mL (≈ 232 µM)
MIC [4]: > 200 µg/mL
EC50 [5]: > 1000 µg/mL
Toxicity MRC-5 [6]: 68 µg/mL
IC50 [6]: 62.5 µg/mL (≈ 145 µM)

NCCCC[C@@H](N)C(=O)N[C@H](CCCCN)C(=O)N[C@H](Cc1c[nH]c2ccccc12)C(=O)NCC(CCC1CCCCC1)(CCC1CCCCC1)C(=O)N[C@@H](Cc1c[nH]c2ccccc12)C(=O)N[C@@H](CCCCN)C(=O)N[C@@H](CCCCN)C(N)=O [Compound 15, (R)-N-((2R,9S,12S,15S)-9-((1H-indol-3-yl)methyl)-19-amino-12-(4-aminobutyl)-15-carbamoyl-6,6-bis(2-cyclohexylethyl)-1-(1H-indol-3-yl)-3,7,10,13-tetraoxo-4,8,11,14-tetraazanonadecan-2-yl)-6-amino-2-((R)-2,6-diaminohexanamido)hexanamide] (H-[dK][dK][dW][X5]WKK-NH2)
Anticancer potency (IC50) A20 [7]: 15.0 µg/mL
Anti-Cancer Selectivity MRC-5/A20 [7]: 3.0
Toxicity MRC-5 [6]: 45.7 µg/mL

NCCCC[C@@H](N)C(=O)N[C@H](CCCCN)C(=O)N[C@H](Cc1c[nH]c2ccccc12)C(=O)NCC(Cc1ccccc1)(Cc1ccccc1)C(=O)N[C@@H](Cc1c[nH]c2ccccc12)C(=O)N[C@@H](CCCCN)C(=O)N[C@@H](CCCCN)C(N)=O [Compound 16, (R)-N-((2R,9S,12S,15S)-9-((1H-indol-3-yl)methyl)-19-amino-12-(4-aminobutyl)-6,6-dibenzyl-15-carbamoyl-1-(1H-indol-3-yl)-3,7,10,13-tetraoxo-4,8,11,14-tetraazanonadecan-2-yl)-6-amino-2-((R)-2,6-diaminohexanamido)hexanamide] (H-[dK][dK][dW][X3]WKK-NH2)
Anticancer potency (IC50) A20 [7]: 263 µg/mL
Anti-Cancer Selectivity MRC-5/A20 [7]: (>1.9)
Toxicity MRC-5 [6]: >500 µg/mL

NCCCC[C@@H](N)C(=O)N[C@H](CCCCN)C(=O)N[C@H](Cc1c[nH]c2ccccc12)C(=O)NCC(CCCc1ccccc1)(CCCc1ccccc1)C(=O)N[C@@H](Cc1c[nH]c2ccccc12)C(=O)N[C@@H](CCCCN)C(=O)N[C@@H](CCCCN)C(N)=O [Compound 17, (R)-N-((2R,9S,12S,15S)-9-((1H-indol-3-yl)methyl)-19-amino-12-(4-aminobutyl)-15-carbamoyl-1-(1H-indol-3-yl)-3,7,10,13-tetraoxo-6,6-bis(3-phenylpropyl)-4,8,11,14-tetraazanonadecan-2-yl)-6-amino-2-((R)-2,6-diaminohexanamido)hexanamide] (H-[dK][dK][dW][X2]WKK-NH2)
Anti-Cancer Selectivity MRC-5/A20 [7]: 9.1 and 5.5
Toxicity MRC-5 [6]: 241 µg/mL and 221 µg/mL

NCCCC[C@@H](N)C(=O)N[C@H](CCCCN)C(=O)N[C@H](Cc1c[nH]c2ccccc12)C(=O)NCC(Cc1ccc2ccccc2c1)(Cc1ccc2ccccc2c1)C(=O)N[C@@H](Cc1c[nH]c2ccccc12)C(=O)N[C@@H](CCCCN)C(=O)N[C@@H](CCCCN)C(N)=O [Compound 18, (R)-N-((2R,9S,12S,15S)-9-((1H-indol-3-yl)methyl)-19-amino-12-(4-aminobutyl)-15-carbamoyl-1-(1H-indol-3-yl)-6,6-bis(naphthalen-2-ylmethyl)-3,7,10,13-tetraoxo-4,8,11,14-tetraazanonadecan-2-yl)-6-amino-2-((R)-2,6-diaminohexanamido)hexanamide]
Anticancer potency (IC50) A20 [7]: 24 µg/mL
Anti-Cancer Selectivity MRC-5/A20 [7]: 4.3
Toxicity MRC-5 [6]: 103 µg/mL

NCCCC[C@@H](N)C(=O)N[C@H](CCCCN)C(=O)N[C@H](Cc1c[nH]c2ccccc12)C(=O)NCC(Cc1ccc(F)cc1)(Cc1ccc(F)cc1)C(=O)N[C@@H](Cc1c[nH]c2ccccc12)C(=O)N[C@@H](CCCCN)C(=O)N[C@@H](CCCCN)C(N)=O [Compound 19, (R)-N-((2R,9S,12S,15S)-9-((1H-indol-3-yl)methyl)-19-amino-12-(4-aminobutyl)-15-carbamoyl-6,6-bis(4-fluorobenzyl)-1-(1H-indol-3-yl)-3,7,10,13-tetraoxo-4,8,11,14-tetraazanonadecan-2-yl)-6-amino-2-((R)-2,6-diaminohexanamido)hexanamide] (H-[dK][dK][dW][X4]WKK-NH2)
Anticancer potency (IC50) A20 [7]: 197 µg/mL
Anti-Cancer Selectivity MRC-5/A20 [7]: (>2.5)
Toxicity MRC-5 [6]: >500 µg/mL

NCCCC[C@@H](N)C(=O)N[C@H](CCCCN)C(=O)N[C@H](Cc1c[nH]c2ccccc12)C(=O)NCC(Cc1ccc(C(F)(F)F)cc1)(Cc1ccc(C(F)(F)F)cc1)C(=O)N[C@@H](Cc1c[nH]c2ccccc12)C(=O)N[C@@H](CCCCN)C(=O)N[C@@H](CCCCN)C(N)=O [Compound 20, (R)-N-((2R,9S,12S,15S)-9-((1H-indol-3-yl)methyl)-19-amino-12-(4-aminobutyl)-15-carbamoyl-1-(1H-indol-3-yl)-3,7,10,13-tetraoxo-6,6-bis(4-(trifluoromethyl)benzyl)-4,8,11,14-tetraazanonadecan-2-yl)-6-amino-2-((R)-2,6-diaminohexanamido)hexanamide]
Anticancer potency (IC50) A20 [7]: 37 µg/mL
Anti-Cancer Selectivity MRC-5/A20 [7]: 7.0
Toxicity MRC-5 [6]: 260 µg/mL

CC(C)(C)c1ccc(CC(CNC(=O)[C@@H](Cc2c[nH]c3ccccc23)NC(=O)[C@@H](CCCCN)NC(=O)[C@H](N)CCCCN)(Cc2ccc(C(C)(C)C)cc2)C(=O)N[C@@H](Cc2c[nH]c3ccccc23)C(=O)N[C@@H](CCCCN)C(=O)N[C@@H](CCCCN)C(N)=O)cc1 [Compound 21, (R)-N-((2R,9S,12S,15S)-9-((1H-indol-3-yl)methyl)-19-amino-12-(4-aminobutyl)-6,6-bis(4-tert-butylbenzyl)-15-carbamoyl-1-(1H-indol-3-yl)-3,7,10,13-tetraoxo-4,8,11,14-tetraazanonadecan-2-yl)-6-amino-2-((R)-2,6-diaminohexanamido)hexanamide]
Anti-Cancer Selectivity MRC-5/A20 [7]: 2.9 and 3.2
Toxicity MRC-5 [6]: 42 µg/mL and 55.2 µg/mL

Cc1cc(C)cc(CC(CNC(=O)[C@@H](Cc2c[nH]c3ccccc23)NC(=O)[C@@H](CCCCN)NC(=O)[C@H](N)CCCCN)(Cc2cc(C)cc(C)c2)C(=O)N[C@@H](Cc2c[nH]c3ccccc23)C(=O)N[C@@H](CCCCN)C(=O)N[C@@H](CCCCN)C(N)=O)c1 [Compound 22, (R)-N-((2R,9S,12S,15S)-9-((1H-indol-3-yl)methyl)-19-amino-12-(4-aminobutyl)-15-carbamoyl-6,6-bis(3,5-dimethylbenzyl)-1-(1H-indol-3-yl)-3,7,10,13-tetraoxo-4,8,11,14-tetraazanonadecan-2-yl)-6-amino-2-((R)-2,6-diaminohexanamido)hexanamide] (H-[dK][dK][dW][X1]WKK-NH2)
Anti-Cancer Selectivity MRC-5/A20 [7]: 7.4 and 5.1
Toxicity MRC-5 [6]: 237 µg/mL and 205 µg/mL
